Experimental findings from patent publication US12552733B2, “Terpenophenolic compounds and their use” (Phytotherapeutix Ltd., priority 2020, dated 2026) are described below.

The test system of data set [1] is PTZ mouse model of seizures. In words: PTZ-induced seizures study. Particulars: 30 min pretreatment; for protection from clonic seizures (PTZ) vs vehicle-treated animals / protection from tonic hindlimb seizures (PTZ) vs vehicle-treated animals: test compounds 200 mg/kg IP, CBD 100 mg/kg IP, 60 min, PTZ 100 mg/kg i.p. The class given is in vivo. On the procedure: Mice were acclimated to the procedure room for at least 30 minutes. Pentylenetetrazole (PTZ; SigmaAldrich) was formulated in water to a concentration of 20 mg/ml. Injections of PTZ were made at a volume of 5 mI/kg to produce a final dose of 100 mg/kg. PTZ injections were i.p. Diazepam was formulated at a concentration of 2 mg/mL and administered at volume of 10 mL/kg to produce a final dose of 20 mg/kg. Time to initial myoclonic and tonic hindlimb extensor response was measured. A 10-min maximum latency to seizure was imposed.
(§1) The data was expressed as mean+SEM. Statistical analysis using one-way ANOVA with post-hoc Fisher's LSD test was used to determine statistical significance compared to the vehicle-treated animals.
(§2) Animals received treatments according to Table 3.
as §2

The nature of data set [2]: PK study: plasma levels after i.p. administration, LC/MS/MS. Particulars: 100 mg/kg i.p.; sampled at 30, 60, 120 min. The class given is in vivo, Mouse. On the procedure: For testing of each compound, six CD-1 mice were divided into 2 groups of 3. Animals were administered test agents via i.p. route and blood collected at 30, 60 and 120 min, administration as outlined in Table 1. Blood samples were collected in EDTA-coated microfuge tubes, inverted and placed on an ice pack prior to centrifugation and storage at −70° C. Samples were extracted using an acetonitrile/protein precipitation method and levels of test agent analysed by LC/MS/MS.
Bioanalytical detection method was developed using an LC/MS/MS (ABI 5000 or 5500). Standard curves of the test agent were prepared in an appropriate biological matrix (plasma). Levels of test article was measured in plasma as per the developed method.
Levels were determined by extrapolating the concentration from a standard curve using linear regression analysis. Method development and bioanalysis was performed by a partner company, Keystone Bioanalytical (North Wales, PA, US).

Data set [3] deals with MES mouse model of seizures. Nature of the data set: Maximal Electroshock (MES) seizure study. The class given is in vivo. Particulars: test compounds 200 mg/kg IP, 30 min pretreatment, CBD 100 mg/kg IP, 60 min, one-way ANOVA, Fisher's LSD. On the procedure:
Animals were administered vehicle, phenytoin, CBD or test compounds and gross behavioural observations were done for 30 minutes. Proparacaine hydrochloride ophthalmic solution (Butler AHS, Dublin, OH) was applied approximately 10 minutes prior to testing to numb the eyes. Thirty to sixty minutes after administration of vehicle,phenytoin, CBD or test compounds, 0.9% saline solution (sodium chloride in water) was applied to both eyes and electro-convulsions were produced by an alternating current delivered via corneal electrodes by a Rodent Shocker generator at a frequency of 60 Hz (Harvard Apparatus, Holliston, Mass.). Parameters for the ICR:CD1 mice were 0.2 s stimulus duration at an intensity of 25 mA. The criterion for seizure occurrence were presence of a tonic hind limb extension, defined as extension exceeding a 90-degree angle with the plane of the body. […] Any seizure activity (i.e. clonic seizures defined as rapid spasms or jerky movements of the limbs) prior to tonic hind limb seizure were recorded as presence of seizure (noted as 1-yes, 0-no). After seizure exhibition or 20-second timeout, mice were euthanized via cervical dislocation.
as §1
The results of the MES study are illustrated in FIG. 4: MES: Latency in seconds for seizures to occur in mice. Animals received treatments according to Table 2. […] Data are expressed as the average ±SEM. Data were analysed by One-way ANOVA, followed by a post-hoc Fisher's LSD test. ***P<0.001, *P<0.05, n=1 PTZ Study
For orientation: In the maximal electroshock model the usual endpoint is tonic extension of the hind limbs.

As to `C=C(C)[C@@H]1CCC(C)=C[C@H]1c1c(O)cc(CCc2ccccc2)cc1O` [(−)-trans-CBD-PET, (1′R,2′R)-5′-methyl-4-phenethyl-2′-(prop-1-ene-2-yl)-1′,2′,3′,4′-tetrahydro-[1,1′-biphenyl]-2,6-diol], in data set [1] (listed as (−)-trans CBD-PET), the “protection from clonic seizures (PTZ) vs vehicle-treated animals” value was “significant protection from clonic seizures” and the “protection from tonic hindlimb seizures (PTZ) vs vehicle-treated animals” value is on record as “significant effect, protecting from tonic hindlimb seizures”. For the same compound, in data set [1] (listed as CBD-PET), the “protection from clonic seizures (PTZ) vs vehicle-treated animals” value was “showing activity against both clonic and tonic seizures”; the “protection from tonic hindlimb seizures (PTZ) vs vehicle-treated animals” value is “showing activity against both clonic and tonic seizures”. The “time at which maximal concentration in plasma was achieved after the injection” value in data set [2] is reported as 30 min.

Turning to `C=C(C)[C@@H]1CCC(C)=C[C@H]1c1c(O)cc(CCc2ccc(O)cc2)cc1O` [(−)-trans-CBD-PET-OH, (1′R,2′R)-4-(4-hydroxyphenethyl)-5′-methyl-2′-(prop-1-ene-2-yl)-1′,2′,3′,4′-tetrahydro-[1,1′-biphenyl]-2,6-diol], the “effect in the MES study (latency to tonic hindlimb seizure) vs vehicle” value is given as “significantly different from vehicle” in data set [3] (listed as (−)-trans CBD-PET-OH) and “effective” in data set [3] (listed as CBD-PET-OH). Further, the “protection from tonic hindlimb seizures (PTZ) vs vehicle-treated animals” value is “significant effect, protecting from tonic hindlimb seizures” in data set [1] (listed as (−)-trans CBD-PET-OH) and “particularly effective against tonic seizures” in data set [1] (listed as CBD-PET-OH). For the same compound, the “time at which maximal concentration in plasma was achieved after the injection” value in data set [2] stood at 30 min.

Regarding `C=C(C)[C@@H]1CCC(C)=C[C@H]1c1c(O)cc(CCCCC)cc1O` [Cannabidiol, reference compound], in data set [3], the “effect in the MES study (latency to tonic hindlimb seizure) vs vehicle” value was “did not produce a significant effect”. Also, in data set [1], the “protection from clonic seizures (PTZ) vs vehicle-treated animals” value is listed as “did not produce a significant effect” and the “protection from tonic hindlimb seizures (PTZ) vs vehicle-treated animals” value was “did not produce a significant effect”.

For the compound `CN1C(=O)CN=C(c2ccccc2)c2cc(Cl)ccc21` [diazepam, reference compound], the “protection from the seizures (PTZ; clonic and tonic hindlimb, FIGS. 5 and 6)” value in data set [1] (PO, p<0.05) came out at 100%.
